Source: PubChem BioAssay (NCI)
Several values for one entry are separate records, joined by “and”; a condition that tells them apart may be missing. Equal entries are not always repeated.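 Protocol summary: plate cells (96-well), add compound at 5 concentrations, incubate 48 h, interpolate endpoints linearly. GI50 marks 50% less growth. At the TGI there is no net growth.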

Tests used:
Assay in all cases: NCI anticancer screen, dose series, 48 h
786-0 renal = test system: 786-0 renal
HOP-92 NSCLC = test system: HOP-92 NSCLC
NCI-H23 lung = test system: NCI-H23 lung
NCI/ADR-RES ovarian = test system: NCI/ADR-RES ovarian
DU-145 prostate = test system: DU-145 prostate
M14 melanoma = test system: M14 melanoma
A549 NSCLC = test system: A549 NSCLC
SF-539 CNS = test system: SF-539 CNS
OVCAR-3 ovarian = test system: OVCAR-3 ovarian
UACC-62 melanoma = test system: UACC-62 melanoma
SK-MEL-5 melanoma = test system: SK-MEL-5 melanoma
SF-268 CNS = test system: SF-268 CNS
NCI-H522 lung = test system: NCI-H522 lung
KM12 colon = test system: KM12 colon
SN12C renal = test system: SN12C renal
SK-MEL-28 melanoma = test system: SK-MEL-28 melanoma
TK-10 renal = test system: TK-10 renal
UACC-257 melanoma = test system: UACC-257 melanoma
HCT-116 colon = test system: HCT-116 colon
CAKI-1 renal = test system: CAKI-1 renal
IGROV1 ovarian = test system: IGROV1 ovarian
OVCAR-8 ovarian = test system: OVCAR-8 ovarian
SK-MEL-2 melanoma = test system: SK-MEL-2 melanoma
ACHN renal = test system: ACHN renal
SF-295 CNS = test system: SF-295 CNS
MCF7 breast = test system: MCF7 breast
EKVX NSCLC = test system: EKVX NSCLC
HCC-2998 colon = test system: HCC-2998 colon
COLO 205 colon = test system: COLO 205 colon
LOX IMVI melanoma = test system: LOX IMVI melanoma
RPMI-8226 leukemia = test system: RPMI-8226 leukemia
MDA-MB-435 = test system: MDA-MB-435
SNB-19 CNS = test system: SNB-19 CNS
HS 578T breast = test system: HS 578T breast
UO-31 renal = test system: UO-31 renal
SW-620 colon = test system: SW-620 colon
HOP-62 NSCLC = test system: HOP-62 NSCLC
T-47D breast = test system: T-47D breast
NCI-H460 lung = test system: NCI-H460 lung
HCT-15 colon = test system: HCT-15 colon
PC-3 prostate = test system: PC-3 prostate
MDA-N = test system: MDA-N
HT29 colon = test system: HT29 colon
K-562 leukemia = test system: K-562 leukemia
MDA-MB-231 breast = test system: MDA-MB-231 breast
HL-60(TB) leukemia = test system: HL-60(TB) leukemia
MOLT-4 leukemia = test system: MOLT-4 leukemia
RXF 393 renal = test system: RXF 393 renal
BT-549 breast = test system: BT-549 breast
MALME-3M melanoma = test system: MALME-3M melanoma
A498 renal = test system: A498 renal
SR leukemia = test system: SR leukemia
CCRF-CEM leukemia = test system: CCRF-CEM leukemia
SNB-75 CNS = test system: SNB-75 CNS
U251 CNS = test system: U251 CNS
OVCAR-5 ovarian = test system: OVCAR-5 ovarian
NCI-H226 lung = test system: NCI-H226 lung
OVCAR-4 ovarian = test system: OVCAR-4 ovarian
SK-OV-3 ovarian = test system: SK-OV-3 ovarian

[N-]=[N+]=NCN1C(=O)C2C3C=CC(C2C1=O)C1C2C(=O)N(CN=[N+]=[N-])C(=O)C2C31 (centres undefined)
TGI (786-0 renal): > 100 µM | TGI (HOP-92 NSCLC): > 100000 nM | TGI (NCI-H23 lung): > 100 µM | TGI (NCI/ADR-RES ovarian): > 100 µM | TGI (DU-145 prostate): > 100 µM | TGI (M14 melanoma): > 100 µM | TGI (A549 NSCLC): > 100 µM | TGI (SF-539 CNS): > 100000 nM | TGI (OVCAR-3 ovarian): > 100 µM | TGI (UACC-62 melanoma): > 100000 nM | TGI (SK-MEL-5 melanoma): > 100000 nM | TGI (SF-268 CNS): > 100 µM | TGI (NCI-H522 lung): > 100 µM | TGI (KM12 colon): > 100 µM | TGI (SN12C renal): > 100 µM | TGI (SK-MEL-28 melanoma): > 100 µM | TGI (TK-10 renal): > 100 µM | TGI (UACC-257 melanoma): > 100 µM | TGI (HCT-116 colon): > 100 µM | TGI (CAKI-1 renal): > 100 µM | TGI (IGROV1 ovarian): > 100000 nM | TGI (OVCAR-8 ovarian): > 100 µM | TGI (SK-MEL-2 melanoma): > 100 µM | TGI (ACHN renal): > 100 µM | TGI (SF-295 CNS): > 100000 nM | TGI (MCF7 breast): > 100 µM | TGI (EKVX NSCLC): > 100000 nM | TGI (HCC-2998 colon): 69.8 µM | TGI (COLO 205 colon): > 100 µM | TGI (LOX IMVI melanoma): > 100 µM | TGI (RPMI-8226 leukemia): > 100 µM | TGI (MDA-MB-435): > 100 µM | TGI (SNB-19 CNS): > 100 µM | TGI (HS 578T breast): > 100000 nM | TGI (UO-31 renal): > 100000 nM | TGI (SW-620 colon): > 100 µM | TGI (HOP-62 NSCLC): > 100 µM | TGI (T-47D breast): > 100000 nM | TGI (NCI-H460 lung): > 100 µM | TGI (HCT-15 colon): > 100 µM | TGI (PC-3 prostate): > 100 µM | TGI (MDA-N): > 100 µM | TGI (HT29 colon): > 100 µM | TGI (K-562 leukemia): > 100 µM

Cc1c(CN2CCN(C(=O)[C@H](C)O)CC2)sc2c(N3CCOCC3)nc(-c3cnc(N)nc3)nc12
GI50 (786-0 renal): 380 nM and 159 nM | TGI (786-0 renal): 4.72 µM and 1.11 µM | GI50 (HOP-92 NSCLC): 143 nM and 18.1 nM | TGI (HOP-92 NSCLC): 800 nM and 108 nM | GI50 (NCI-H23 lung): 389 nM and 181 nM | TGI (NCI-H23 lung): > 100 µM | GI50 (NCI/ADR-RES ovarian): 663 nM and 408 nM | TGI (NCI/ADR-RES ovarian): > 30.2 µM | GI50 (DU-145 prostate): 424 nM and 244 nM | TGI (DU-145 prostate): > 100 µM | GI50 (M14 melanoma): 326 nM and 93.6 nM | TGI (M14 melanoma): > 9.28 µM and 1.44 µM | GI50 (A549 NSCLC): 439 nM and 207 nM | TGI (A549 NSCLC): 9.75 µM and 7.57 µM | GI50 (SF-539 CNS): 388 nM and 222 nM | TGI (SF-539 CNS): 2270 nM and 875 nM | GI50 (OVCAR-3 ovarian): 202 nM and 182 nM | TGI (OVCAR-3 ovarian): 5.4 µM and 2.18 µM | GI50 (MDA-MB-231 breast): 515 nM and 384 nM | TGI (MDA-MB-231 breast): > 40.6 µM | GI50 (UACC-62 melanoma): 100 nM and 110 nM | TGI (UACC-62 melanoma): 917 nM and 467 nM | GI50 (SK-MEL-5 melanoma): 397 nM and 174 nM | TGI (SK-MEL-5 melanoma): 2150 nM and 741 nM | GI50 (HL-60(TB) leukemia): 146 nM and 192 nM | TGI (HL-60(TB) leukemia): > 10 µM and 6.81 µM | GI50 (SF-268 CNS): 328 nM and 204 nM | TGI (SF-268 CNS): > 10 µM and 27.1 µM | GI50 (NCI-H522 lung): 220 nM and 156 nM | TGI (NCI-H522 lung): > 10 µM | GI50 (KM12 colon): 755 nM and 393 nM | TGI (KM12 colon): > 10 µM and 15.2 µM | GI50 (SN12C renal): 179 nM and 174 nM | TGI (SN12C renal): > 100 µM | GI50 (MOLT-4 leukemia): 175 nM and 139 nM | TGI (MOLT-4 leukemia): > 10 µM and 12.7 µM | GI50 (RXF 393 renal): 60.3 nM and 119 nM | TGI (RXF 393 renal): 443 nM and 543 nM | GI50 (BT-549 breast): 146 nM and 65 nM | TGI (BT-549 breast): 3110 nM and 570 nM | GI50 (SK-MEL-28 melanoma): 247 nM and 138 nM | TGI (SK-MEL-28 melanoma): 5.43 µM and 0.708 µM | GI50 (TK-10 renal): 191 nM and 131 nM | TGI (TK-10 renal): 3.51 µM and 0.825 µM | GI50 (MALME-3M melanoma): 50.6 nM | TGI (MALME-3M melanoma): 847 nM and 414 nM | GI50 (UACC-257 melanoma): 310 nM and 132 nM | TGI (UACC-257 melanoma): 3.76 µM and 0.751 µM | GI50 (A498 renal): 54.2 nM and 28.3 nM | TGI (A498 renal): 242 nM and 150 nM | GI50 (HCT-116 colon): 634 nM and 252 nM | TGI (HCT-116 colon): > 40.1 µM | GI50 (CAKI-1 renal): 159 nM and 213 nM | TGI (CAKI-1 renal): > 4.52 µM and 2.14 µM | GI50 (IGROV1 ovarian): 16.1 nM and 51.1 nM | TGI (IGROV1 ovarian): 265 nM and 377 nM | GI50 (OVCAR-8 ovarian): 631 nM and 260 nM | TGI (OVCAR-8 ovarian): > 10 µM and 2.34 µM | GI50 (SK-MEL-2 melanoma): 513 nM and 198 nM | TGI (SK-MEL-2 melanoma): 4.72 µM and 1.8 µM | GI50 (ACHN renal): 203 nM and 145 nM | GI50 (SF-295 CNS): 131 nM and 82.2 nM | TGI (SF-295 CNS): 1720 nM and 529 nM | GI50 (MCF7 breast): 42.8 nM and 37.9 nM | TGI (MCF7 breast): > 100 µM | GI50 (SR leukemia): 365 nM and 262 nM | TGI (SR leukemia): > 10 µM and 3.88 µM | GI50 (EKVX NSCLC): 121 nM and 210 nM | TGI (EKVX NSCLC): 2260 nM and 2340 nM | GI50 (HCC-2998 colon): 552 nM and 242 nM | TGI (HCC-2998 colon): 9.79 µM and 13.1 µM | GI50 (COLO 205 colon): 224 nM and 233 nM | TGI (COLO 205 colon): > 5.47 µM and 9.5 µM | GI50 (LOX IMVI melanoma): 153 nM and 179 nM | TGI (LOX IMVI melanoma): 3.05 µM and 2.64 µM | GI50 (CCRF-CEM leukemia): 1110 nM and 322 nM | TGI (CCRF-CEM leukemia): > 100 µM | GI50 (SNB-75 CNS): 31.7 nM and 23.5 nM | TGI (SNB-75 CNS): 670 nM and 255 nM | GI50 (RPMI-8226 leukemia): 267 nM and 206 nM | TGI (RPMI-8226 leukemia): > 8.66 µM and 11.8 µM | GI50 (MDA-MB-435): 285 nM and 186 nM | TGI (MDA-MB-435): 3.16 µM and 1.38 µM | GI50 (SNB-19 CNS): 898 nM and 313 nM | TGI (SNB-19 CNS): > 10 µM and 6.16 µM | GI50 (HS 578T breast): 53.9 nM and 44.6 nM | TGI (HS 578T breast): 541 nM and 352 nM | GI50 (UO-31 renal): 57.9 nM and 53 nM | TGI (UO-31 renal): 1350 nM and 658 nM | GI50 (U251 CNS): 1050 nM and 328 nM | TGI (U251 CNS): > 35.8 µM | GI50 (SW-620 colon): 473 nM and 285 nM | TGI (SW-620 colon): > 100 µM | GI50 (OVCAR-5 ovarian): 192 nM and 128 nM | TGI (OVCAR-5 ovarian): > 10 µM and 4.3 µM | GI50 (HOP-62 NSCLC): 548 nM and 182 nM | TGI (HOP-62 NSCLC): > 7.07 µM and 3.85 µM | GI50 (T-47D breast): 14.5 nM and 26.9 nM | TGI (T-47D breast): 332 nM and 175 nM | GI50 (NCI-H460 lung): 120 nM and 108 nM | TGI (NCI-H460 lung): > 100 µM | GI50 (HCT-15 colon): 258 nM and 248 nM | TGI (HCT-15 colon): > 100 µM | GI50 (NCI-H226 lung): 345 nM and 159 nM | TGI (NCI-H226 lung): 6.15 µM | GI50 (PC-3 prostate): 122 nM and 75.3 nM | TGI (PC-3 prostate): > 100 µM | GI50 (HT29 colon): 207 nM and 174 nM | TGI (HT29 colon): > 56.8 µM | GI50 (K-562 leukemia): 1500 nM and 2390 nM | TGI (K-562 leukemia): > 100 µM | GI50 (OVCAR-4 ovarian): 346 nM and 144 nM | TGI (OVCAR-4 ovarian): 3860 nM and 1090 nM | GI50 (SK-OV-3 ovarian): 123 nM and 112 nM | TGI (SK-OV-3 ovarian): 1130 nM and 573 nM
